Data reported in PubChem BioAssay (NCI).
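96-well plates; 48 h exposure; 5 concentrations. Endpoints by linear interpolation between flanking doses. Not reached: highest tested concentration assigned. TGI is the concentration that stops growth completely.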

Key:
Assay in all cases: growth of human tumour cells (NCI), 48 h
786-0 renal = system: 786-0 renal
A498 renal = system: A498 renal
A549 NSCLC = system: A549 NSCLC
ACHN renal = system: ACHN renal
BT-549 breast = system: BT-549 breast
CAKI-1 renal = system: CAKI-1 renal
CCRF-CEM leukemia = system: CCRF-CEM leukemia
COLO 205 colon = system: COLO 205 colon
DU-145 prostate = system: DU-145 prostate
EKVX NSCLC = system: EKVX NSCLC
HCC-2998 colon = system: HCC-2998 colon
HCT-116 colon = system: HCT-116 colon
HCT-15 colon = system: HCT-15 colon
HL-60(TB) leukemia = system: HL-60(TB) leukemia
HOP-62 NSCLC = system: HOP-62 NSCLC
HOP-92 NSCLC = system: HOP-92 NSCLC
HS 578T breast = system: HS 578T breast
HT29 colon = system: HT29 colon
IGROV1 ovarian = system: IGROV1 ovarian
K-562 leukemia = system: K-562 leukemia
KM12 colon = system: KM12 colon
LOX IMVI melanoma = system: LOX IMVI melanoma
M14 melanoma = system: M14 melanoma
MALME-3M melanoma = system: MALME-3M melanoma
MCF7 breast = system: MCF7 breast
MDA-MB-231 breast = system: MDA-MB-231 breast
MDA-MB-435 = system: MDA-MB-435
MDA-N = system: MDA-N
MOLT-4 leukemia = system: MOLT-4 leukemia
NCI-H226 lung = system: NCI-H226 lung
NCI-H23 lung = system: NCI-H23 lung
NCI-H460 lung = system: NCI-H460 lung
NCI-H522 lung = system: NCI-H522 lung
NCI/ADR-RES ovarian = system: NCI/ADR-RES ovarian
OVCAR-3 ovarian = system: OVCAR-3 ovarian
OVCAR-4 ovarian = system: OVCAR-4 ovarian
OVCAR-5 ovarian = system: OVCAR-5 ovarian
OVCAR-8 ovarian = system: OVCAR-8 ovarian
PC-3 prostate = system: PC-3 prostate
RPMI-8226 leukemia = system: RPMI-8226 leukemia
RXF 393 renal = system: RXF 393 renal
SF-268 CNS = system: SF-268 CNS
SF-295 CNS = system: SF-295 CNS
SF-539 CNS = system: SF-539 CNS
SK-MEL-2 melanoma = system: SK-MEL-2 melanoma
SK-MEL-28 melanoma = system: SK-MEL-28 melanoma
SK-MEL-5 melanoma = system: SK-MEL-5 melanoma
SK-OV-3 ovarian = system: SK-OV-3 ovarian
SN12C renal = system: SN12C renal
SNB-19 CNS = system: SNB-19 CNS
SR leukemia = system: SR leukemia
SW-620 colon = system: SW-620 colon
TK-10 renal = system: TK-10 renal
U251 CNS = system: U251 CNS
UACC-257 melanoma = system: UACC-257 melanoma
UACC-62 melanoma = system: UACC-62 melanoma
UO-31 renal = system: UO-31 renal
SNB-75 CNS = system: SNB-75 CNS
T-47D breast = system: T-47D breast

Measured: TGI

CCOC(=O)c1cc(NC(=O)c2ccccc2)c(=O)n2c(cc3c(Cl)cccc32)c1O
not listed: SNB-75 CNS | T-47D breast
> 100 µM: all other assays above

CCOC(=O)C(NC(=O)Nc1ccccc1F)(OC)C(F)(F)F (stereo not given)
not listed: DU-145 prostate | HOP-62 NSCLC | HOP-92 NSCLC | KM12 colon | MALME-3M melanoma | MCF7 breast | MDA-MB-231 breast | NCI-H226 lung | NCI-H460 lung | NCI-H522 lung | OVCAR-3 ovarian | OVCAR-4 ovarian | SF-295 CNS | UACC-62 melanoma
> 100 µM: all other assays above

CC(=O)NNc1nc(C)c(C(/C=C/c2ccc3c(c2)OCO3)=N/NC(=O)c2ccncc2)s1
not listed: COLO 205 colon | DU-145 prostate
> 100 µM: all other assays above

N#CCCN(CCC#N)c1ccc(/C=C2\N=C(c3ccccc3)N(NC(=O)c3ccncc3)C2=O)cc1
not listed: CAKI-1 renal | CCRF-CEM leukemia | HCC-2998 colon | MALME-3M melanoma | NCI-H23 lung | NCI-H522 lung | SR leukemia | SNB-75 CNS
> 100 µM: all other assays above
